From the supplement of paper PMC10307832

What was measured:
Test in all cases: relative viability (nuclei count vs DMSO), 5 days (fraction); higher = more cells survive
[1] = compound: C1=CC2=C(C=C(C(=C2N=C1)O)N=NC3=CC4=C(C=C3)C=C(C=C4)S(=O)(=O)O)S(=O)(=O)O + CC1(C)CCC(c2ccc(Cl)cc2)=C(CN2CCN(c3ccc(C(=O)NS(=O)(=O)c4ccc(N[C@H](CCN5CCOCC5)CSc5ccccc5)c(S(=O)(=O)C(F)(F)F)c4)cc3)CC2)C1 [Navitoclax] (partner 0.5 µM)
In short: (§1)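 A single step with final 0.05% Triton X-100, 1% formaldehyde and 1 ug/ml Hoechst fixed the cells and stained nuclei 5 days after treatment. Lung cancer cell lines in 1536-well plates had been treated by pin tool the day after seeding with one drug alone or a fixed anchor-drug dose plus five library-drug doses (not always all listed) in √10 steps, and nuclei were counted on 4× images. Relative viability is the ratio of nuclei in treated wells to nuclei in vehicle wells, taken as the median of duplicate plates.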

[2] = compound: C1=CC2=C(C=C(C(=C2N=C1)O)N=NC3=CC4=C(C=C3)C=C(C=C4)S(=O)(=O)O)S(=O)(=O)O + COc1cc2c(Oc3ccc(NC(=O)C4(C(=O)Nc5ccc(F)cc5)CC4)cc3F)ccnc2cc1OCCCN1CCOCC1 [Foretinib] (partner 0.25 µM)
In short: as §1

AT-7519 = compound: O=C(NC1CCNCC1)c1n[nH]cc1NC(=O)c1c(Cl)cccc1Cl [AT-7519]
In short: (§2)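 Lung cancer cell lines received five library-drug doses (not always all listed) spaced by √10, pinned on vehicle-anchored 1536-well plates after an overnight stay at 37 °C. Five days later, with no medium change, nuclei were Hoechst-stained, imaged at 4× and counted with MetaXpress. Viability is treated-well nuclei relative to vehicle-well nuclei, as a median across plates. Passing plates had control CV below 25% and at least one doubling.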

[3] = compound: C1=CC2=C(C=C(C(=C2N=C1)O)N=NC3=CC4=C(C=C3)C=C(C=C4)S(=O)(=O)O)S(=O)(=O)O
In short: as §2

Cell Line | relative viability ([1]; first compound 0.08 µM) | relative viability ([1]; first compound 0.253 µM) | relative viability ([1]; first compound 0.8 µM) | relative viability ([1]; first compound 2.53 µM) | relative viability ([1]; first compound 8 µM) | relative viability ([2]; first compound 0.08 µM) | relative viability ([2]; first compound 0.253 µM) | relative viability ([2]; first compound 0.8 µM) | relative viability ([2]; first compound 2.53 µM) | relative viability ([2]; first compound 8 µM) | relative viability (AT-7519; 0.01 µM) | relative viability (AT-7519; 0.03162 µM) | relative viability (AT-7519; 0.3162 µM) | relative viability (AT-7519; 1 µM) | relative viability ([3]; 0.08 µM) | relative viability ([3]; 0.253 µM) | relative viability ([3]; 0.8 µM) | relative viability ([3]; 2.53 µM) | relative viability ([3]; 8 µM)
NCI-H1915 | 0.818 | 0.764 | 0.835 | 0.765 | 0.768 | 1.12 | 1.04 | 1.09 | 1.13 | 1.12 | 1.03 | 0.982 | 0.881 | 0.84 | 1.02 | 0.968 | 0.989 | 0.987 | 0.966
NCI-H596 | 0.946 | 0.973 | 1.06 | 0.964 | 1.01 | 0.902 | 0.904 | 0.82 | 1.01 | 0.737 | 0.928 | 0.925 | 1.04 | 0.912 | 1.06 | 0.987 | 0.982 | 1.03 | 1.01
NCI-H322M | 1.35 | 1.22 | 1.19 | 1.16 | 1.22 | 1.1 | 0.989 | 0.919 | 0.89 | 0.95 | 0.913 | 0.947 | 0.773 | 0.798 | 1.07 | 0.93 | 0.901 | 0.877 | 0.951
NCI-H1299 | 1.09 | 1.05 | 0.976 | 1.08 | 1.06 | 1.17 | 1.04 | 1.04 | 1.09 | 1.06 | 1.05 | 1.02 | 1.02 | 1.18 | 1.02 | 1.01 | 1 | 1.04 | 1
NCI-H2228 | 1.09 | 0.801 | 0.953 | 0.577 | 0.874 | 0.902 | 0.826 | 0.87 | 0.878 | 0.923 | 1.15 | 0.926 | 0.936 | 0.591 | 1.31 | 1.03 | 0.907 | 1.01 | 0.957
IA-LM | 0.769 | 0.885 | 0.819 | 0.75 | 0.694 | 1.3 | 1.01 | 1.1 | 1.18 | 1.12 | 0.912 | 0.874 | 0.856 | 0.854 | 1.02 | 0.954 | 0.785 | 0.896 | 0.934
NCI-H647 | 1.19 | 0.955 | 0.938 | 1.24 | 1.23 | 1.33 | 1.09 | 1.14 | 1.28 | 1.3 | 1 | 0.923 | 0.886 | 0.72 | 0.877 | 0.932 | 0.881 | 1.08 | 0.971
SK-MES-1 | 1.26 | 1.16 | 1.31 | 1.26 | 1.19 | 0.86 | 0.856 | 0.874 | 0.761 | 1.15 | 1.02 | 0.968 | 1 | 0.771 | 1.03 | 0.967 | 0.968 | 0.987 | 1.02
NCI-H2170 | 0.628 | 0.477 | 0.544 | 0.637 | 0.707 | 1.05 | 0.925 | 0.958 | 0.799 | 0.954 | 0.967 | 0.964 | 1.02 | 0.991 | 1.07 | 0.988 | 0.97 | 1.02 | 0.932
NCI-H2085 | 1.2 | 1.14 | 0.98 | 1.12 | 1.18 | 1.08 | 0.886 | 0.894 | 0.963 | 0.634 | 1.01 | 1 | 1.01 | 1.01 | 1.1 | 0.997 | 0.946 | 1.04 | 1.03
SW 1573 | 1.01 | 0.971 | 1.03 | 0.964 | 0.977 | 1.1 | 1.02 | 1.02 | 1.01 | 0.444 | 0.988 | 0.84 | 0.753 | 0.312 | 1.11 | 1.03 | 0.944 | 1.01 | 0.815
NCI-H727 | 0.358 | 0.378 | 0.415 | 0.453 | 0.49 | 0.939 | 0.759 | 0.835 | 1.03 | 0.774 | 0.954 | 0.802 | 0.849 | 0.447 | 1.15 | 0.921 | 0.923 | 0.958 | 0.941
NCI-H441 | 0.706 | 0.573 | – | 0.479 | 0.431 | 1.11 | 1.06 | 1.04 | 1.07 | 1.05 | 1.03 | 1.02 | 1.05 | 0.523 | 1.16 | 0.942 | 0.898 | 1.06 | 0.947
LOU-NH91 | 0.72 | 0.672 | 0.704 | 0.723 | 0.687 | 0.974 | 0.946 | 0.93 | 0.917 | 1.01 | 0.93 | 0.963 | 0.956 | 0.933 | 0.964 | 0.978 | 0.99 | 0.989 | 0.948
